Experimental data taken from ChEMBL document CHEMBL1137485, “Design, synthesis, and biological testing of pyrazoline derivatives of combretastatin-A4” (Bioorg Med Chem Lett, 2007).

What was measured:
B16 = test: Cytotoxicity against mouse B16 cells after 72 hrs by MTT assay; type: functional, cell-based; conditions: B16, 72 h
L1210 = test: Cytotoxicity against mouse L1210 cells after 72 hrs by MTT assay; type: functional, cell-based; conditions: L1210, 72 h
A10 [1] = test: Reduction of microtubules in human A10 cells at 40 uM; type: functional; set-up: scale not given: the % may be the effect or the level left
A10 [2] = test: Reduction of microtubules in […] A10 cells; type: functional, cell-based; conditions: Rattus norvegicus

EC50 (A10 [2]) [µM] | SMILES | IC50 (B16) [µM] | IC50 (L1210) [µM] | Activity (A10 [1]) [%]
 | COc1cc(C2=NN(C(C)=O)C(c3ccc([N+](=O)[O-])cc3)C2)cc(OC)c1OC (stereo not drawn) | 51 | 42 | 
 | COc1cc(C2=NNC(c3cc(OC)c(OC)c(OC)c3)C2)cc(OC)c1OC (stereo not drawn) | 56 | 24 | 
 | COc1ccc(C2CC(c3cc(OC)c(OC)c(OC)c3)=NN2)cc1OC (stereo not drawn) | 44 | 42 | 
 | COc1ccc(C2CC(c3cc(OC)c(OC)c(OC)c3)=NN2C(C)=O)cc1[N+](=O)[O-] (stereo not drawn) | > 100 | 52 | 
 | COc1ccccc1C1CC(c2cc(OC)c(OC)c(OC)c2)=NN1C(C)=O (stereo not drawn) | > 100 | 43 | 
 | COc1cccc(C2CC(c3cc(OC)c(OC)c(OC)c3)=NN2C(C)=O)c1 (stereo not drawn) | > 100 | 44 | 
 | COc1cc(C2=NN(C(C)=O)C(c3ccc(Cl)cc3)C2)cc(OC)c1OC (stereo not drawn) | 35 | 30 | 
 | COc1ccc(C2CC(c3cc(OC)c(OC)c(OC)c3)=NN2C(C)=O)cc1O (stereo not drawn) | > 100 | > 100 | 10
7.1 | COc1ccc(C2CC(c3cc(OC)c(OC)c(OC)c3)=NN2)cc1O (stereo not drawn) | 2.1 | 0.5 | 
 | COc1cc(OC)c(C2CC(c3cc(OC)ccc3OC)=NN2C(C)=O)c(OC)c1 (stereo not drawn) | 69 | 33 | 
 | COc1ccc(OC)c(C2CC(c3cc(OC)c(OC)c(OC)c3)=NN2C(C)=O)c1 (stereo not drawn) | > 100 | > 100 | 
 | COc1ccc(OC)c(C2=NN(C(C)=O)C(c3ccc(OC)c(OC)c3)C2)c1 (stereo not drawn) | 62 | 28 | 
 | COc1ccc(OC)c(C2=NN(C(C)=O)C(c3ccc(OC)c([N+](=O)[O-])c3)C2)c1 (stereo not drawn) | 58 | 40 | 
